Counter-ions that a name gives are not always drawn.
Molecular target: T1, human α7 nAChR (Homo sapiens, UniProt P36544)
T1 construct: expressed in transfected cells; host or cells: GH4C1 (rat pituitary cell line)
Test: cell-based calcium flux assay (FLIPR) for PAM activity at the α7 nAChR
Conditions: Table 1; potentiation of nicotine-evoked calcium flux, GH4C1 cells stably transfected with human α7 nAChR; read-out: a7 new sm > PXC50 MEAN
Method: The PAM activity of the compounds of the invention at the α7 nAChR may be determined using the following cell-based calcium flux assay which uses a Fluorimetric Image Plate Reader (FLIPR) (see Schroeder et al.; J. Biomolecular Screening, 1(2), p 75-80, 1996).
GH4C1 cell line stably transfected with human α7 nAChR was suspended in a 384 well plate and incubated at 30° C. for 48 h in a 5% carbon dioxide atmosphere. The growth media was removed and the cells washed three times with a solution of Hanks' balanced salt solution (HBSS), 20 mM HEPES and 2.5 mM probenecid leaving 20 μl washing solution in each well. A loading solution (200) containing HBSS, probenecid, 1-4 μM Fluo4 AM (a calcium indicator dye) and pluronic acid was added and the plate incubated for 45 min at 37° C. under an atmosphere free from carbon dioxide. The cells were washed three times leaving 30 μl in each well. The plate containing the cells and calcium indicator dye were then transferred to the FLIPR. The assay was initiated by collecting baseline datapoints at 10 second intervals followed by addition of the test compound in buffer solution (0.33% DMSO) and diluted to a final concentration of 10 μM and serial dilution of the wells, 1:2 or 1:3, gave a low concentration of <1 nM. Following a further 5-10 mins 10 μl of 50 μM nicotine was added and data collected for 2 to 3 mins. Nicotine produced a rapid, transient and reproducible calcium flux which could be potentiated with the positive allosteric modulator test compounds.

T1 sequence (P36544 23-502): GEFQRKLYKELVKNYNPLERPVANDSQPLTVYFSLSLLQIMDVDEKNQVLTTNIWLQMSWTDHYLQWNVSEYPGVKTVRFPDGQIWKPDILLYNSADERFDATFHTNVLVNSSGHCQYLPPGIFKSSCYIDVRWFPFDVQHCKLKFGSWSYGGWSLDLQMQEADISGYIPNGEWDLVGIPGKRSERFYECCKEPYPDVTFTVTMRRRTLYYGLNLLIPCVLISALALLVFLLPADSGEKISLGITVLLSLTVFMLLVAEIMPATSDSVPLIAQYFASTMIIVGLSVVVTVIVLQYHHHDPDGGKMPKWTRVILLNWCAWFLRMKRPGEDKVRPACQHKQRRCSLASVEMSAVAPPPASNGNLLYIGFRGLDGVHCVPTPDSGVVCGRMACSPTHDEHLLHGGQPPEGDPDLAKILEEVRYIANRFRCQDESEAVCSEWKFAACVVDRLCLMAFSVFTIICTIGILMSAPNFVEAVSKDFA

EC50 [µM] | SMILES
≤ 10 | Cc1occc1-c1nc(N2CCCC(C)C2)ncc1-c1cccnc1 (centres unmarked) [Example 2, 4-(2-Methyl-3-furanyl)-2-(3-methyl-1-piperidinyl)-5-(3-pyridinyl)pyrimidine hydrochloride]
≤ 1 | Cc1cc(-c2cnc(N3CCCC(C)C3)nc2-c2ccoc2C)ccn1 (centres unmarked) [Example 3, 4-(2-Methyl-3-furanyl)-2-(3-methyl-1-piperidinyl)-5-(2-methyl-4-pyridinyl)pyrimidine hydrochloride]
≤ 1 | Cc1cc(-c2cnc(N3CCCCC3)nc2-c2ccoc2C)ccn1 [Example 4, 4-(2-Methyl-3-furanyl)-5-(2-methyl-4-pyridinyl)-2-(1-piperidinyl)pyrimidine hydrochloride]
≤ 10 | Cc1occc1-c1nc(N2CCCCCC2)ncc1-c1ccccn1 [Example 7, 1-[4-(2-Methyl-3-furanyl)-5-(2-Pyridinyl)-2-pyrimidinyl]hexahydro-1H-azepine hydrochloride]
≤ 3.16 | Cc1occc1-c1nc(N2CCCC(C)C2)ncc1-c1ccccn1 (centres unmarked) [Example 8, 4-(2-Methyl-3-furanyl)-2-(3-methyl-1-piperidinyl)-5-(2-pyridinyl)pyrimidine hydrochloride]
≤ 1 | Cc1occc1-c1nc(N2CCCC(C)C2)ncc1-c1ccncc1 (centres unmarked) [Example 1, 4-(2-Methyl-3-furanyl)-2-(3-methyl-1-piperidinyl)-5-(4-pyridinyl)pyrimidine hydrochloride]

Further lines, the molecule ahead of its results:

SMILES | EC50 [µM]
Cc1cc(-c2cnc(N3C[C@@H](C)O[C@@H](C)C3)cc2-c2ccoc2C)ccn1 [Example 11, 6-(cis-2,6-dimethyl-4-morpholinyl)-2′-methyl-4-(2-methyl-3-furanyl)-3,4′-bipyridine hydrochloride] | ≤ 3.16
Cc1cc(-c2cnc(N3C[C@H](C)O[C@@H](C)C3)nc2-c2ccoc2C)ccn1 (relative stereo) [Example 6, trans-2,6-Dimethyl-4-[4-(2-methyl-3-furanyl)-5-(2-methyl-4-pyridinyl)-2-pyrimidinyl]morpholine hydrochloride] | ≤ 1
Cc1cc(-c2cnc(N3C[C@@H](C)O[C@@H](C)C3)nc2-c2cc(F)ccc2C#N)ccn1 [Example 18, cis-2-[2-(2,6-Dimethyl-4-morpholinyl)-5-(2-methyl-4-pyridinyl)-4-pyrimidinyl]-4-fluorobenzonitrile hydrochloride] | ≤ 10
Cc1cc(-c2cnc(N3C[C@@H](C)O[C@@H](C)C3)nc2-c2cccnc2C(F)(F)F)ccn1 [Example 16, cis-2,6-Dimethyl-4-{5-(2-methyl-4-pyridinyl)-4-[2-(trifluoromethyl)-3-pyridinyl]-2-pyrimidinyl}morpholine hydrochloride] | ≤ 10
Cc1cc(-c2cnc(N3C[C@@H](C)O[C@@H](C)C3)nc2-c2ccccc2C)ccn1 [Example 14, cis-2,6-Dimethyl-4-[4-(2-methylphenyl)-5-(2-methyl-4-pyridinyl)-2-pyrimidinyl]morpholine] | ≤ 3.16
Cc1cc(-c2cnc(N3C[C@@H](C)O[C@@H](C)C3)nc2CC(C)C)ccn1 [Example 9, cis-2,6-Dimethyl-4-[4-(2-methylpropyl)-5-(2-methyl-4-pyridinyl)-2-pyrimidinyl]morpholine hydrochloride] | ≤ 1
Cc1cc(-c2ccc(N3C[C@@H](C)O[C@@H](C)C3)nc2-c2ccoc2C)ccn1 [Example 12, 6-(cis-2,6-dimethyl-4-morpholinyl)-2′-methyl-2-(2-methyl-3-furanyl)-3,4′-bipyridine hydrochloride] | ≤ 3.16
Cc1cc(-c2ccc(N3C[C@@H](C)O[C@@H](C)C3)cc2-c2ccoc2C)ccn1 [Example 13, cis-2,6-Dimethyl-4-[3-(2-methyl-3-furanyl)-4-(2-methyl-4-pyridinyl)phenyl]morpholine] | ≤ 1
Cc1cc(-c2cnc(N3C[C@@H](C)O[C@@H](C)C3)nc2-c2ccoc2C)ccn1 [Example 5, cis-2,6-Dimethyl-4-[4-(2-methyl-3-furanyl)-5-(2-methyl-4-pyridinyl)-2-pyrimidinyl]morpholine hydrochloride] | ≤ 1
Cc1cc(-c2cnc(N3C[C@@H](C)O[C@@H](C)C3)nc2-c2cnc(F)cc2C)ccn1 [Example 17, cis-4-[4-(6-Fluoro-4-methyl-3-pyridinyl)-5-(2-methyl-4-pyridinyl)-2-pyrimidinyl]-2,6-dimethylmorpholine hydrochloride] | ≤ 3.16
Cc1cc(-c2cnc(N3C[C@@H](C)O[C@@H](C)C3)nc2-c2cccc(C(F)(F)F)c2C#N)ccn1 [Example 19, cis-2-[2-(2,6-dimethyl-4-morpholinyl)-5-(2-methyl-4-pyridinyl)-4-pyrimidinyl]-6-(trifluoromethyl)benzonitrile hydrochloride] | ≤ 1
Cc1cc(-c2ncc(N3C[C@@H](C)O[C@@H](C)C3)nc2-c2ccoc2C)ccn1 [Example 10, cis-2,6-Dimethyl-4-[6-(2-methyl-3-furanyl)-5-(2-methyl-4-pyridinyl)-2-pyrazinyl]morpholine hydrochloride] | ≤ 3.16
Cc1cnccc1-c1cnc(N2C[C@@H](C)O[C@@H](C)C2)nc1-c1ccoc1C [Example 15, cis-2,6-dimethyl-4-[4-(2-methyl-3-furanyl)-5-(3-methyl-4-pyridinyl)-2-pyrimidinyl]morpholine hydrochloride] | ≤ 3.16

Same assay, conditions: Table 2, commercially available compounds; potentiation of nicotine-evoked calcium flux, GH4C1 cells stably transfected with human α7 nAChR; read-out: a7 new sm > PXC50 MEAN

EC50 [µM] | SMILES
≤ 3.16 | Cc1noc(C)c1-c1nc(N2CCCC(C)C2)ncc1-c1ccncc1 (centres unmarked) [AOP 14465526]
≤ 1 | c1cc(-c2cnc(N3CCSCC3)nc2-c2ccoc2)ccn1 [ADM 14465558]
≤ 1 | Cc1occc1-c1nc(N2CC(C)OC(C)C2)ncc1-c1ccncc1 (centres unmarked) [ADM 13269721]
≤ 3.16 | Cc1noc(C)c1-c1nc(N2CCCCCC2)ncc1-c1ccncc1 [AOP 14465544]
≤ 1 | Cc1occc1-c1nc(N2CCCC(C)C2)ncc1-c1ccncc1 (centres unmarked) [ADM 13269678]
≤ 3.16 | Cc1occc1-c1nc(N2CCCCCC2)ncc1-c1ccncc1 [ATL 13269690 or ADM 13269690]
≤ 3.16 | Cc1occc1-c1nc(N2CCSCC2)ncc1-c1ccncc1 [ADM 13269686]
≤ 3.16 | Cc1occc1-c1nc(N2CCCC2)ncc1-c1ccncc1 [ADM 13269675]
≤ 10 | c1cc(-c2cnc(N3CCCCC3)nc2-c2ccoc2)ccn1 [ADM 14465561]
≤ 3.16 | c1coc(-c2cnc(N3CCSCC3)nc2-c2ccco2)c1 [LMK 13280444]
≤ 10 | CC1CCCN(c2ncc(-c3ccncc3)c(-c3ccco3)n2)C1 (centres unmarked) [LMK 13268083]
≤ 3.16 | Cc1cc(-c2cnc(N3CCSCC3)nc2-c2ccc(C)o2)on1 [AEM 14465590]
≤ 3.16 | Cc1ccc(-c2nc(N3CCCCC3)ncc2-c2ccncc2)cn1 [AOP 13274014]
≤ 10 | Cc1noc(C)c1-c1nc(N2CCSCC2)ncc1-c1ccncc1 [AOP 14465529]
≤ 1 | Cc1ccc(-c2nc(N3CCCC(C)C3)ncc2-c2ccncc2)cn1 (centres unmarked) [AOP 13274016]
≤ 1 | Cc1occc1-c1nc(N2CCCCC2)ncc1-c1ccncc1 [ADM 13269676]

Second part, the molecule before the results:

SMILES | EC50 [µM]
Cc1ccc(-c2nc(N3CCCCC3)ncc2-c2cc(C)no2)cn1 [ADM 14220371] | ≤ 1
COc1cc(-c2cnc(N3CCCCC3)nc2-c2ccco2)nc(OC)n1 [ATL 14631888] | ≤ 10
c1ccc(-c2nnc(N3CCCC3)nc2-c2ccccc2)cc1 [AO-476/43380313] | ≤ 1
Cc1ccc(-c2nc(N3CCCC3)ncc2-c2cc(C)no2)cn1 [ADM 14220366] | ≤ 10
Cc1ccc(-c2nc(N3CCCC(C)C3)ncc2-c2cc(C)no2)cn1 (centres unmarked) [ADM 14220368] | ≤ 1
COc1cc(-c2cnc(N3CCCC3)nc2-c2ccco2)nc(OC)n1 [ATL 14631887] | ≤ 10
Cc1cc(-c2cnc(N3CCSCC3)nc2-c2ccc(C)s2)on1 [ADM 14408364] | ≤ 3.16
Cc1occc1-c1nc(N2CCN(C(=O)c3ccco3)CC2)ncc1-c1ccccn1 [ADM 13270126] | ≤ 10

Same assay, conditions: further batch (as the HCl salt); read-out: pEC50 (converted)

EC50 [µM] | SMILES
> 10 | Cc1cc(-c2cnc(N3C[C@@H](C)O[C@@H](C)C3)nc2-c2ccccc2C#N)ccn1

Same assay, conditions: further batch (as the HCl salt); relative to nicotine control

maximum potentiation of the response area relative to nicotine control | SMILES
approximately 1200% | Cc1cc(-c2cnc(N3C[C@@H](C)O[C@@H](C)C3)nc2-c2ccccc2C#N)ccn1

Same assay, conditions: potentiation of nicotine-evoked calcium flux; read-out: pEC50 (converted)

EC50 [µM] | SMILES
~2.51 | Cc1cc(-c2cnc(N3C[C@@H](C)O[C@@H](C)C3)nc2-c2ccccc2C#N)ccn1

Same assay, conditions: relative to nicotine control

maximum potentiation of the response area relative to nicotine control | SMILES
approximately 1200% | Cc1cc(-c2cnc(N3C[C@@H](C)O[C@@H](C)C3)nc2-c2ccccc2C#N)ccn1

From US9133178B2, “Alpha-7 nicotinic receptor modulators for the treatment of pain, a psychotic disorder, cognitive impairment or alzheimer'S disease” (Proximagen Limited, priority 2010, dated 2015)
